Laboratory results reported in publication PMC4726814, “Molecular Characterization of E-Type Prostanoid Receptor 4 (EP4) from Ayu (Plecoglossus altivelis) and Its Functional Analysis in the Monocytes/Macrophages” (PLoS ONE, 2016).

Molecular target: T1, PaEP4L (Plecoglossus altivelis, UniProt A0A142DUN0)
T1 construct: gene EP4; MG1 insect cell membranes
Assay: [3H]-PGE2 saturation binding to MG1 insect cell membranes, Scatchard

T1 sequence (A0A142DUN0 1-459): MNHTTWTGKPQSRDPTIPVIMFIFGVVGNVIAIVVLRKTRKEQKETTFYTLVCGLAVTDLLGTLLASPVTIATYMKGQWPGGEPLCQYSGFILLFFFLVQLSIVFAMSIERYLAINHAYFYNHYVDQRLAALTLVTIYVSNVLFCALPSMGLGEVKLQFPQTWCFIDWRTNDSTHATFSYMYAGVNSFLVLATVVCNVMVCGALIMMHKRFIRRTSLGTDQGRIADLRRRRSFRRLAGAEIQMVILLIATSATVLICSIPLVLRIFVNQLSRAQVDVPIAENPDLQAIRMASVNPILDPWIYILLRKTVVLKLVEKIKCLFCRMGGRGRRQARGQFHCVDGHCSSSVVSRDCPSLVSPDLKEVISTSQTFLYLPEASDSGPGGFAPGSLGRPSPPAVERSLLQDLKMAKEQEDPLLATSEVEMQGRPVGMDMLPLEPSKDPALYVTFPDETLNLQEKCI

CCCCC[C@H](O)/C=C/[C@H]1[C@H](O)CC(=O)[C@@H]1C/C=C\CCCC(=O)O [PGE2]
Kd: 120 nM
